pIC50: −log10 of the molar value. Read-outs that look alike come from different tables or passages of the source.
Columns and labels:
A204 = assay: CellTiter-Glo cell viability assay; format: cell-based; conditions: for pIC50: Homo sapiens, A204, RHABDOMYOSARCOMA, Muscle, 72 hours
Description: (§1) Cell viability in the presence of varying concentrations of the above listed compounds at different time points was used to assess cytotoxicity and the effect of the compounds on cell proliferation.
(§2) Cell viability was measured by the CellTiter-Glo® cell viability assay from Promega (Madison, Wis.). The CellTiter-Glo® Luminescent Cell Viability Assay is a homogeneous method to determine the number of viable cells in culture based on quantitation of the ATP present, which signals the presence of metabolically active cells. Following treatment, CellTiter-Glo® is added to treatment wells and incubated at 37° C. luminescence values were measured at using a Molecular Devices Spectramax microplate reader
(§3) Cells were grown to 70% confluency, trypsinized, counted, and seeded in 96 well flat-bottom plates at a final concentration of 2.5×10^3-5×10^3 cells/well (Day 0). Cells were allowed to incubate in growth media for 24 hours. Treatment with the test agents or standard agents began on Day 1 and continued for 72 hours. At the 72-hour timepoint, treatment containing media was removed. Viable cell numbers are quantified by the CellTiter-Glo® cell viability assay as described above. Results from these studies were used to calculate an IC50 value (concentration of drug that inhibits cell growth by 50 percent of control) for each compound.
(§4) For single agent and combination studies, data from each experiment was collected and expressed as % Cell Growth using the following calculation: % Cell Growth=(ftest/fvehicle)×100
(§5) Where test is the fluorescence of the tested sample, and fvehicle is the fluorescence of the vehicle in which the drug is dissolved. Dose response graphs and IC50 values were generated using Prism 6 software (GraphPad) using the following equation: Y=(Top-Bottom)/(1+10^((logIC^50^-X)-HillSlope))

A549 = assay: CellTiter-Glo cell viability assay; format: cell-based; conditions: for pIC50: Homo sapiens, A549, LUNG, NSCLC, 72 hours
Description: as §1, §2, §3, §4, §5

CCRF-CEM = assay: CellTiter-Glo cell viability assay; format: cell-based; conditions: for pIC50: Homo sapiens, CCRF-CEM, HEMATOPIETIC, ALL, 72 hours
Description: as §1, §2, §3, §4, §5

H1650 = assay: CellTiter-Glo cell viability assay; format: cell-based; conditions: for pIC50: Homo sapiens, NCI-H1650, H1650, LUNG, NSCLC, 72 hours
Description: as §1, §2, §3, §4, §5

H358 = assay: CellTiter-Glo cell viability assay; format: cell-based; conditions: for pIC50: Homo sapiens, NCI-H358, H358, LUNG, NSCLC, 72 hours
Description: as §1, §2, §3, §4, §5

H660 = assay: CellTiter-Glo cell viability assay; format: cell-based; conditions: for pIC50: NCI-H660, H660, PROSTATE, LN Met, 72 hours
Description: as §1, §2, §3, §4, §5

HT-29 = assay: CellTiter-Glo cell viability assay; format: cell-based; conditions: for pIC50: Homo sapiens, HT-29, COLON, CRC, 72 hours
Description: as §1, §2, §3, §4, §5

Hs695T = assay: CellTiter-Glo cell viability assay; format: cell-based; conditions: for pIC50: Homo sapiens, Hs 695T, Hs695T, MELANOMA, LN Met, 72 hours
Description: as §1, §2, §3, §4, §5

J1M-1 = assay: CellTiter-Glo cell viability assay; format: cell-based; conditions: for pIC50: J1M-1, HEMATOPIETIC, MM, 72 hours
Description: as §1, §2, §3, §4, §5

KG-1 = assay: CellTiter-Glo cell viability assay; format: cell-based; conditions: for pIC50: Homo sapiens, KG-1, HEMATOPIETIC, AML, 72 hours
Description: as §1, §2, §3, §4, §5

KLE = assay: CellTiter-Glo cell viability assay; format: cell-based; conditions: for pIC50: Homo sapiens, KLE, ENDOMETRIAL, 72 hours
Description: as §1, §2, §3, §4, §5

L363 = assay: CellTiter-Glo cell viability assay; format: cell-based; conditions: for pIC50: Homo sapiens, L-363, L363, HEMATOPIETIC, MM, 72 hours
Description: as §1, §2, §3, §4, §5

MDA-MB-157 = assay: CellTiter-Glo cell viability assay; format: cell-based; conditions: for pIC50: Homo sapiens, MDA-MB-157, BREAST, Medullary Carcinoma, 72 hours
Description: as §1, §2, §3, §4, §5

MSTO-211H = assay: CellTiter-Glo cell viability assay; format: cell-based; conditions: for pIC50: Homo sapiens, MSTO-211H, LUNG, Mesothelioma, 72 hours
Description: as §1, §2, §3, §4, §5

MV411 = assay: CellTiter-Glo cell viability assay; format: cell-based; conditions: for pIC50: Homo sapiens, MV4-11, MV411, HEMATOPIETIC, AML, 72 hours
Description: as §1, §2, §3, §4, §5

NCI-H226 = assay: CellTiter-Glo cell viability assay; format: cell-based; conditions: for pIC50: Homo sapiens, NCI-H226, LUNG, Mesothelioma, 72 hours
Description: as §1, §2, §3, §4, §5

Nalm-6 = assay: CellTiter-Glo cell viability assay; format: cell-based; conditions: for pIC50: Homo sapiens, Nalm-6, HEMATOPIETIC, ALL, 72 hours
Description: as §1, §2, §3, §4, §5

OAW28 = assay: CellTiter-Glo cell viability assay; format: cell-based; conditions: for pIC50: Homo sapiens, OAW-28, OAW28, OVARIAN, ovarian cystadenocarcinoma, 72 hours
Description: as §1, §2, §3, §4, §5

RKO = assay: CellTiter-Glo cell viability assay; format: cell-based; conditions: for pIC50: Homo sapiens, RKO, COLON, CRC, 72 hours
Description: as §1, §2, §3, §4, §5

Y79 = assay: CellTiter-Glo cell viability assay; format: cell-based; conditions: for pIC50: Homo sapiens, Y79, RETINOBLASTOMA, Retina, 72 hours
Description: as §1, §2, §3, §4, §5

YAPC = assay: CellTiter-Glo cell viability assay; format: cell-based; conditions: for pIC50: Homo sapiens, YAPC, PANCREAS, Pancreatic, 72 hours
Description: as §1, §2, §3, §4, §5

[1] = Pharmacokinetics studies in mice; format: in vivo; conditions: for AUC(0-inf) / AUC(0-t) / Cmax / Tmax / bioavailability / half-life / Vd/F: mouse, in vivo; for Vd/F: read-out: Vz/Fobs
From the text: Volume of distribution is one of the most important pharmacokinetic properties of a drug candidate and for an anticancer drug can result in increased drug distribution to the tumor.

[2] = IV-1 mg/kg, 5% Ethanol 5% Cremophor 90% Saline
[3] = PO-5 mg/kg, 10% Ethanol 90% Labrasol
[4] = SC-5 mg/kg, 5% Ethanol 5% Cremophor 90% Saline

## CCC(C(=O)Nc1ncc(C(=O)NO)s1)c1ccc(OC)cc1 (racemic) [#1, N-hydroxy-2-(2-(4-methoxyphenyl)butanamido)thiazole-5-carboxamide]
A204
  pIC50: 7.48
A549
  pIC50: 7.12
CCRF-CEM
  pIC50: 7.55
H1650
  pIC50: 6.44
H358
  pIC50: 6.80
H660
  pIC50: 6.80
HT-29
  pIC50: 6.87
Hs695T
  pIC50: 6.43
J1M-1
  pIC50: 7.33
KG-1
  pIC50: 7.66
KLE
  pIC50: 6.67
L363
  pIC50: 7.36
MDA-MB-157
  pIC50: 6.77
MSTO-211H
  pIC50: 6.89
MV411
  pIC50: 8.15
NCI-H226
  pIC50: 6.32
Nalm-6
  pIC50: 7.59
OAW28
  pIC50: 6.54
RKO
  pIC50: 6.57
Y79
  pIC50: 6.44
YAPC
  pIC50: 6.36
[1]; PO-5 mg/kg
  AUC % Extrap: 5.51%
  CI/Fobs: 28.99 L/h/kg
  AUC(0-inf): 0.172 µg·h/mL
  AUC(0-t): 0.163 µg·h/mL
  Cmax: 0.0308 µg/mL
  Tmax: 30 min
  bioavailability: 14.3%
  half-life: 326 min
  Vd/F: 228 L/kg

## CC[C@H](C(=O)Nc1ncc(C(=O)NO)s1)c1ccc(OC)cc1 [#1a, (S)—N-hydroxy-2-(2-(4-methoxyphenyl)butanamido)thiazole-5-carboxamide]
A204
  pIC50: 7.27
A204; ratio of IC50, A204
  #1/#1a: 0.61
  #1b/#1a: 3.15
A549
  pIC50: 7.28
A549; ratio of IC50, A549
  #1/#1a: 1.46
  #1b/#1a: 7.65
CCRF-CEM
  pIC50: 7.85
CCRF-CEM; ratio of IC50, CCRF-CEM
  #1/#1a: 2
  #1b/#1a: 8.07
H1650
  pIC50: 6.76
H1650; ratio of IC50, H1650
  #1/#1a: 2.09
  #1b/#1a: 6.91
H358
  pIC50: 7.16
H358; ratio of IC50, H358
  #1/#1a: 2.29
  #1b/#1a: 8.09
H660
  pIC50: 7.55
H660; ratio of IC50, H660
  #1/#1a: 5.64
  #1b/#1a: 15.11
HT-29
  pIC50: 7.37
HT-29; ratio of IC50, HT-29
  #1/#1a: 3.16
  #1b/#1a: 9.53
Hs695T
  pIC50: 7.28
Hs695T; ratio of IC50, Hs695T
  #1/#1a: 7.15
  #1b/#1a: 18.65
J1M-1
  pIC50: 7.59
J1M-1; ratio of IC50, J1M-1
  #1/#1a: 1.81
  #1b/#1a: 8.42
KG-1
  pIC50: 7.92
KG-1; ratio of IC50, KG-1
  #1/#1a: 1.83
  #1b/#1a: 12.33
KLE
  pIC50: 6.97
KLE; ratio of IC50, KLE
  #1/#1a: 2.03
  #1b/#1a: 8.03
L363
  pIC50: 7.68
L363; ratio of IC50, L363
  #1/#1a: 2.1
  #1b/#1a: 8.1
MDA-MB-157
  pIC50: 7.05
MDA-MB-157; ratio of IC50, MDA-MB-157
  #1/#1a: 1.9
  #1b/#1a: 6.27
MSTO-211H
  pIC50: 7.28
MSTO-211H; ratio of IC50, MSTO-211H
  #1/#1a: 2.46
  #1b/#1a: 6.77
MV411
  pIC50: 8.22
MV411; ratio of IC50, MV411
  #1/#1a: 1.17
  #1b/#1a: 3.83
NCI-H226
  pIC50: 6.70
NCI-H226; ratio of IC50, NCI-H226
  #1/#1a: 2.4
  #1b/#1a: 8.44
Nalm-6
  pIC50: 7.96
Nalm-6; ratio of IC50, Nalm-6
  #1/#1a: 2.36
  #1b/#1a: 8.27
OAW28
  pIC50: 7.07
OAW28; ratio of IC50, OAW28
  #1/#1a: 3.39
  #1b/#1a: 6.61
RKO
  pIC50: 6.84
RKO; ratio of IC50, RKO
  #1/#1a: 1.84
  #1b/#1a: 9.37
Y79
  pIC50: 7.06
Y79; ratio of IC50, Y79
  #1/#1a: 4.17
  #1b/#1a: 7.25
YAPC
  pIC50: 6.67
YAPC; ratio of IC50, YAPC
  #1/#1a: 2.03
  #1b/#1a: 9.13
[1]; [2]
  AUC % Extrap: 0.20%
  CI/Fobs: 9.38 L/h/kg
  AUC(0-inf): 0.107 µg·h/mL
  AUC(0-t): 0.106 µg·h/mL
  Cmax: 0.131 µg/mL
  Tmax: 15 min
  half-life: 55.8 min
[1]; PO-5 mg/kg
  AUC % Extrap: 1.93%
  CI/Fobs: 67.30 L/h/kg
  AUC(0-inf): 0.0743 µg·h/mL
  AUC(0-t): 0.0728 µg·h/mL
  Cmax: 0.0287 µg/mL
  Tmax: 30 min
  bioavailability: 13.9%
  half-life: 332 min
  Vd/F: 537 L/kg
[1]; [3]
  AUC % Extrap: 1.93%
  CI/Fobs: 67.30 L/h/kg
[1]; [4]
  AUC % Extrap: 0.85%
  CI/Fobs: 14.42 L/h/kg
  AUC(0-inf): 0.347 µg·h/mL
  AUC(0-t): 0.344 µg·h/mL
  Cmax: 0.252 µg/mL
  Tmax: 15 min
  bioavailability: 65.1%
  half-life: 73.2 min
  Vd/F: 25.3 L/kg

## CC[C@@H](C(=O)Nc1ncc(C(=O)NO)s1)c1ccc(OC)cc1 [#1b, (R)—N-hydroxy-2-(2-(4-methoxyphenyl)butanamido)thiazole-5-carboxamide]
A204
  pIC50: 6.77
A549
  pIC50: 6.40
CCRF-CEM
  pIC50: 6.95
H1650
  pIC50: 5.92
H358
  pIC50: 6.25
H660
  pIC50: 6.37
HT-29
  pIC50: 6.39
Hs695T
  pIC50: 6.01
J1M-1
  pIC50: 6.66
KG-1
  pIC50: 6.83
KLE
  pIC50: 6.07
L363
  pIC50: 6.77
MDA-MB-157
  pIC50: 6.25
MSTO-211H
  pIC50: 6.45
MV411
  pIC50: 7.64
NCI-H226
  pIC50: 5.77
Nalm-6
  pIC50: 7.04
OAW28
  pIC50: 6.25
RKO
  pIC50: 5.87
Y79
  pIC50: 6.20
YAPC
  pIC50: 5.71
[1]; PO-5 mg/kg
  AUC % Extrap: 1.02%
  CI/Fobs: 54.72 L/h/kg
  AUC(0-inf): 0.0914 µg·h/mL
  AUC(0-t): 0.0904 µg·h/mL
  Cmax: 0.0209 µg/mL
  Tmax: 60 min
  bioavailability: 16.2%
  half-life: 216 min
  Vd/F: 284 L/kg

— patent US11420947B2, “(S)-n-hydroxy-2-(2-(4-methoxyphenyl)butanamido)thiazole-5-carboxamide and pharmaceutically acceptable salts thereof” (TRANSLATIONAL DRUG DEVELOPMENT, LLC, priority 2018, dated 2022)
